How the values were obtained:
[1] = non-sink dissolution experiments in biorelevant media at 37° C.; format: physicochemical; details: for Dissolution levels after 15 min / Dissolution levels after 30 min: 37° C., non-sink dissolution; for dissolution behaviour in biorelevant intestinal milieu (FaSSIF) compared to crystalline entities of the free compound: comparison in words
Protocol: (§1) The mono fumaric acid co-crystal form A1 is characterised by the following physical properties: • 1 eq. […] The DSC scan of mono fumaric acid co-crystal form A1 was acquired on a Mettler-Toledo DSC1 with a heating rate of 5 K/min, using nitrogen purge gas at 50 mL/min. […] Eur. criteria (section 5.11.). […] The water vapour sorption isotherm was acquired on a DVS intrinsic system from SMS. • The concentration levels of the mono fumaric acid co-crystal form A1 were determined at 37° C. after 15 min and 30 min in non-sink-dissolution experiments.
as §1, with “The hemi” for “The mono”, “form A2” for “form A1”, “• 0.5” for “• 1”, “of the hemi” for “of mono”, “Eur. Criteria” for “Eur. criteria”, “the hemi” for “the mono”

[2] = water vapour sorption isotherm (25° C.), DVS intrinsic system; hygroscopicity according to Ph. Eur. 5.11; format: physicochemical; details: for water uptake levels (water vapour sorption): 25° C.
Excerpt: The amorphous state can be classified as hygroscopic according to Ph. […] The water vapour sorption isotherm was acquired on a DVS intrinsic system from SMS.
Eur. criteria (section 5.11.).
The water vapour sorption isotherm was acquired on a DVS Intrinsic system from SMS.
as §1
as §1, with “The hemi” for “The mono”, “form A2” for “form A1”, “• 0.5” for “• 1”, “of the hemi” for “of mono”, “Eur. Criteria” for “Eur. criteria”, “the hemi” for “the mono”

[3] = full relative humidity range 0-98% RH

Compound | Dissolution levels after 15 min ([1]; FaSSIF [pH 6.5]) [µg/mL] | Dissolution levels after 30 min ([1]; FaSSIF [pH 6.5]) | dissolution behaviour in biorelevant intestinal milieu (FaSSIF) compared to crystalline entities of the free compound [1] | Dissolution levels after 15 min ([1]; FeSSIF [pH 5.0]) [µg/mL] | Dissolution levels after 30 min ([1]; FeSSIF [pH 5.0]) [µg/mL] | Dissolution levels after 15 min ([1]; SGF [pH 1.2]) [µg/mL] | Dissolution levels after 30 min ([1]; SGF [pH 1.2]) [µg/mL] | hygroscopicity classification according to Ph. Eur. criteria (section 5.11.) ([2]; 25° C. water vapour sorption) | tendency to undergo hydrate formation upon exposure to elevated RH levels [2] | water uptake levels (water vapour sorption) [2, 3] | further results
COc1ncc(C2=CCOCC2)c2sc(NC(=O)N3CC[C@@]4(CCCOC4)C3)nc12 [mono fumaric acid co-crystal form A1, (S)-7-Oxa-2-aza-spiro[4,5]decane-2-carboxylic acid [7-(3,6-dihydro2H-pyran-4-yl)-4-methoxy-thiazolo[4,5-c]pyridin-2-yl]-amide] | 278 | 360 µg/mL | improved dissolution behaviour | 375 | 462 | 331 | 385 | Slightly hygroscopic | no tendency to undergo hydrate formation | < 3 % (w/w) | 
COc1ncc(C2=CCOCC2)c2sc(NC(=O)N3CC[C@@]4(CCCOC4)C3)nc12 [amorphous state, (S)-7-Oxa-2-aza-spiro[4,5]decane-2-carboxylic acid [7-(3,6-dihydro2H-pyran-4-yl)-4-methoxy-thiazolo[4,5-c]pyridin-2-yl]-amide] |  |  |  |  |  |  |  | hygroscopic |  | > 22 % (w/w) | humidity level at which tendencies for deliquescence are shown ([2]; 25° C. water vapour sorption): > 90 % RH
COc1ncc(C2=CCOCC2)c2sc(NC(=O)N3CC[C@@]4(CCCOC4)C3)nc12 [hemi tartaric acid co-crystal form NF2, (S)-7-Oxa-2-aza-spiro[4,5]decane-2-carboxylic acid [7-(3,6-dihydro2H-pyran-4-yl)-4-methoxy-thiazolo[4,5-c]pyridin-2-yl]-amide] |  | approx. 145 μg/mL |  |  |  |  |  |  |  |  | 
COc1ncc(C2=CCOCC2)c2sc(NC(=O)N3CC[C@@]4(CCCOC4)C3)nc12 [hemi fumaric acid co-crystal form A2, (S)-7-Oxa-2-aza-spiro[4,5]decane-2-carboxylic acid [7-(3,6-dihydro2H-pyran-4-yl)-4-methoxy-thiazolo[4,5-c]pyridin-2-yl]-amide] | 317 | 492 µg/mL | improved dissolution behaviour | 651 | 899 | 206 | 292 | slightly hygroscopic |  |  | water uptake levels (water vapour sorption) ([2]; relative humidity range 0-80% RH): ≤ 0.7 % (w/w)

Second part, led by results:

Dissolution levels after 15 min ([1]; FaSSIF [pH 6.5]) [µg/mL] | Dissolution levels after 30 min ([1]; FaSSIF [pH 6.5]) | dissolution behaviour in biorelevant intestinal milieu (FaSSIF) compared to crystalline entities of the free compound [1] | Dissolution levels after 15 min ([1]; FeSSIF [pH 5.0]) [µg/mL] | Dissolution levels after 30 min ([1]; FeSSIF [pH 5.0]) [µg/mL] | Dissolution levels after 15 min ([1]; SGF [pH 1.2]) [µg/mL] | Dissolution levels after 30 min ([1]; SGF [pH 1.2]) [µg/mL] | hygroscopicity classification according to Ph. Eur. criteria (section 5.11.) ([2]; 25° C. water vapour sorption) | tendency to undergo hydrate formation upon exposure to elevated RH levels [2] | water uptake levels (water vapour sorption) [2, 3] | Compound | further results
 |  |  |  |  |  |  | Slightly hygroscopic | no tendency to undergo hydrate formation |  | COc1ncc(C2=CCOCC2)c2sc(NC(=O)N3CC[C@@]4(CCCOC4)C3)nc12 [crystalline anhydrous form A1, (S)-7-Oxa-2-aza-spiro[4,5]decane-2-carboxylic acid [7-(3,6-dihydro2H-pyran-4-yl)-4-methoxy-thiazolo[4,5-c]pyridin-2-yl]-amide] | hygroscopicity classification according to Ph. Eur. criteria (section 5.11.) ([2]; 25° C. water vapour sorption, listed as A1 form): slightly hygroscopic; water uptake levels (water vapour sorption) ([2]; full relative humidity range 0-98% RH, listed as A1 form): < 1 % (w/w)
 |  |  |  |  |  |  | Not hygroscopic | no tendency to undergo hydrate formation |  | COc1ncc(C2=CCOCC2)c2sc(NC(=O)N3CC[C@@]4(CCCOC4)C3)nc12 [mono 3-hydroxybenzoic acid co-crystal form NF1] [(S)-7-Oxa-2-aza-spiro[4,5]decane-2-carboxylic acid [7-(3,6-dihydro2H-pyran-4-yl)-4-methoxy-thiazolo[4,5-c]pyridin-2-yl]-amide] | 
